This assay concerns the target T1, surface-expressed CD73 on human PBMCs (Homo sapiens, UniProt P21589).
T1 construct: 72400 (T cells); host or cells: human PBMCs / human T cells
T1 sequence (P21589 27-549): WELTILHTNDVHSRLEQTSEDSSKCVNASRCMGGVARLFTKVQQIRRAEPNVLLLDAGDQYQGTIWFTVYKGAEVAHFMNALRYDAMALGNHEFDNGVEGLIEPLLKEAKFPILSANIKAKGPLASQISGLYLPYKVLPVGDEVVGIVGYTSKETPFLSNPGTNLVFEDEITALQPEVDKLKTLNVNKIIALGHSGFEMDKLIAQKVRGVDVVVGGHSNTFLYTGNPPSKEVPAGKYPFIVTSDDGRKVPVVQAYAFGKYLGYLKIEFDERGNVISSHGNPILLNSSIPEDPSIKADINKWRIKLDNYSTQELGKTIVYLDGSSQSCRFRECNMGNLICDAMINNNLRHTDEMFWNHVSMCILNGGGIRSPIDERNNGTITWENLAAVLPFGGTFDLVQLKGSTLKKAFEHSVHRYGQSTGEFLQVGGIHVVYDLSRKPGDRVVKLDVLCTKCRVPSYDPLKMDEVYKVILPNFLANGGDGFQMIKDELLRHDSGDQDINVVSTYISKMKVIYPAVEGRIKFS
As to the kind of experiment: Human immune cell-based CD73 enzyme inhibition assay (PBMCs). The following applies: AMP 300 μM, 2.5-3 h. On the procedure:
The human immune cell-based CD73 enzyme inhibition assay was performed essentially as described above For the cell-free assay, with the following modifications. Human PBMCs (cat. no. HUMAN-PBMC-U-211140) or T cells (cat. no. 72400, Stem Cell Tech) were seeded at 8×10^3 cells/well into 96-well tissue culture-treated plates. […] Percent CD73 inhibition versus concentration were plotted using GraphPad Prism Version 8 and IC50's calculated using nonlinear regression analysis ([inhibitor]vs normalized response).

Structures are written as SMILES. pIC50: −log10 of the molar value.

The pIC50 is the IC50 on a negative log10 scale, so that one unit is a factor of ten. A higher pIC50 goes with a low IC50.

As for `COC[C@](CO)(OC[C@H]1O[C@@H](n2ncc3c(NC4CCCC4)nc(Cl)nc32)[C@H](O)[C@@H]1O)P(=O)(O)O` [OP5244], the pIC50 was 10.70.
